Measured values reported in US8673578B2, “Methods of identifying antagonists of the hTAS2R46 bitter taste receptor” (Deutsches Institut für Ernahrungsforschung Potsdam-Rehbrücke, priority 2009, dated 2014).

Experiments:
Test in all cases: calcium imaging (FLIPR), activation of hTAS2R-transfected HEK293T-Gα16gust44 cells
hTAS2R44 = biological target: T1, hTAS2R44 (Homo sapiens, UniProt P59538, L162M); type: cell-based
T1 construct: expressed in transfected cells; host or cells: HEK293T cells stably expressing chimeric Gα16gust44, transient transfection
T1 sequence (P59538 1-309 L162M): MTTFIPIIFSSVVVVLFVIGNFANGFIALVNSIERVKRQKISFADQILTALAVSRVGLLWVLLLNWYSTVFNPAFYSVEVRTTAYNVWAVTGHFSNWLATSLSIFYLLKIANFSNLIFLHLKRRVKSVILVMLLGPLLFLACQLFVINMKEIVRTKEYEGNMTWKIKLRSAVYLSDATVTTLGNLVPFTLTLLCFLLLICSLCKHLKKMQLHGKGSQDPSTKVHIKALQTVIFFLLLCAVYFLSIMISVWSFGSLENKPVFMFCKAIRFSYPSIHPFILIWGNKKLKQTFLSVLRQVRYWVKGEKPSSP
Source text: (§1) Human TAS2R cDNAs were cloned into pcDNA5/FRT (Invitrogen, San Diego, Calif.). For adequate plasma membrane targeting, receptor cDNA was fused to the aminoterminal sequence of the rat somatostatin type 3 receptor at the aminoterminus of the recombinant protein (Bufe, B., T. Hofmann, et al. (2002) Nat Genet. 32(3): 397-401). For immunological detection, the Herpes simplex Glycoprotein D epitope was supplemented at the carboxyterminus of the recombinant protein (Bufe et al., supra). Receptor constructs were transiently transfected into HEK293T cells stably expressing the chimeric G protein subunit Gα16gust44 (Ueda, T., S. Ugawa, et al. (2003) J Neurosci 23(19): 7376-80) using Lipofectamine 2000 (Invitrogen, San Diego, Calif.) in 96-well plates.
(§2) Calcium Imaging experiments were performed 24 h after transfection using a Fluorometric Imaging Plate Reader (FLIPR, Molecular Devices, Munich, Germany) as previously described (Bufe et al., supra). Taste active compounds were ordered from Sigma (Sigma-Aldrich, Taufkirchen, Germany). Absinthin, 3β hydroxy dihydro costunolide and 3β hydroxy pelenolide were kindly provided by Giovanni Appendino (Novara, Italy). Test substances were directly dissolved in C1 buffer (130 mM NaCl, 10 mM Na-Hepes, 10 mM Glucose, 5 mM KCl, 2 mM CaCl2, pH 7.4) or in DMSO, respectively. DMSO stocks were further diluted in C1 buffer not exceeding a final DMSO concentration of 1% on the cells. For the investigation of antagonistic effects, test substances were premixed. Agonists were applied at concentrations corresponding to EC90, except where indicated otherwise (Table 2). Data were collected from 3 independent experiments performed in quadruplicates and processed with SigmaPlot (SPSS, Chicago, Ill.). Fluorescence signals after application of test substances were corrected for and normalized to background fluorescence (ΔF/F═(F−F0)/F0), and baseline noise was subtracted. Calculation of dose-response curves was done by nonlinear regression using the function f(y)=((a−d)/(1+(x/EC50)^nH)+d).
(§3) In a first series of experiments we tested the two sesquiterpene lactones 3β hydroxy dihydro costunolide (formula (I) in FIG. 1) and 3β hydroxy pelenolide (formula (II) in FIG. 1) for their ability to activate hTAS2 receptor-expressing HEK293T cells.
(§4) Signal amplitudes were comparatively small (FIG. 2C).

hTAS2R1 = biological target: T2, hTAS2R1 (Homo sapiens, UniProt Q9NYW7); type: cell-based; conditions: 100 μM test substance, bath application
T2 construct: expressed in transfected cells; host or cells: HEK293T cells stably expressing chimeric Gα16gust44, transient transfection
T2 sequence (Q9NYW7 1-299): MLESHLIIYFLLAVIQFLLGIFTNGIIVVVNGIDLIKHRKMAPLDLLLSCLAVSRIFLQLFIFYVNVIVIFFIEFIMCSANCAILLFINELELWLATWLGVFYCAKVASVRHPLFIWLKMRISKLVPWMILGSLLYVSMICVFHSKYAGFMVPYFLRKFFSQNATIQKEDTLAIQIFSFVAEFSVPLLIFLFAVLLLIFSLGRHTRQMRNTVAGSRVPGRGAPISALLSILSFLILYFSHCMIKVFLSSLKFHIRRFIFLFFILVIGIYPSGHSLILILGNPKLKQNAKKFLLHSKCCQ
Source text: as §1, §2, §3, §4

other hTAS2 receptors = type: cell-based, human; conditions: 100 μM test substance, bath application
Source text: as §1
Calcium Imaging experiments were performed 24 h after transfection using a Fluorometric Imaging Plate Reader (FLIPR, Molecular Devices, Munich, Germany) as previously described (Bufe et al., supra). Taste active compounds were ordered from Sigma (Sigma-Aldrich, Taufkirchen, Germany). Absinthin, 3β hydroxy dihydro costunolide and 3β hydroxy pelenolide were kindly provided by Giovanni Appendino (Novara, Italy). […] Fluorescence signals after application of test substances were corrected for and normalized to background fluorescence (ΔF/F═(F−F0)/F0), and baseline noise was subtracted. […]

hTAS2R46 = biological target: T3, hTAS2R46 (Homo sapiens, UniProt P59540); type: cell-based; conditions: 100 μM test substance, bath application
T3 construct: expressed in transfected cells; host or cells: HEK293T cells stably expressing chimeric Gα16gust44, transient transfection
T3 sequence (P59540 1-309): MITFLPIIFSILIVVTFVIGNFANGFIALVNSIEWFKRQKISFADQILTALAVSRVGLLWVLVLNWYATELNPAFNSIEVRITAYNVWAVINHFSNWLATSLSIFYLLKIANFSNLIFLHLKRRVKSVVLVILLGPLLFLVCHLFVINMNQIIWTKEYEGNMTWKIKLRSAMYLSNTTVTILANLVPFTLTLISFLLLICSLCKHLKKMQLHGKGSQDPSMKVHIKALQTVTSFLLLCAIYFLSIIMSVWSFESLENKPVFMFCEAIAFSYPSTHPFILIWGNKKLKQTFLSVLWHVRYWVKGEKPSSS
Source text: as §1
as §2, with “f(y)=((a−d)/(1+(x/EC50)^nH)+d). […]” for “f(y)=((a−d)/(1+(x/EC50)^nH)+d).”
Finally, the impact of chemical modifications on the antagonistic properties of 3β hydroxy dihydro costunolide on hTAS2R46-expressing cells was studied. Derivatives of 3β hydroxy dihydro costunolide with site-directed modifications at C3 and C11 were generated (FIG. 7A) These derivatives were tested for activation or inhibition of hTAS2R46-expressing cells in the absence or presence of the agonist strychnine (3 μM) and half-maximum effective concentrations (EC50) or half-maximal inhibitory concentrations were calculated (FIG. 7B).

Q: Which “calcium response of hTAS2R44-transfected cells” value (hTAS2R44; 100 μM test substance, bath application) does the source give for `C/C1=C\C[C@H](O)/C(C)=C/[C@H]2OC(=O)[C@@H](C)C2CC1` (stereo partly drawn) [3β hydroxy dihydro costunolide] here?
A: Its value is “responded”.

Q: What about the EC50 (hTAS2R44; concentration-response, intracellular calcium) of the same molecule?
A: Its EC50 is 31.5 ± 7.4 µM.

Q: And the “calcium response of hTAS2R1-transfected cells” value (hTAS2R1)?
A: The value was “responded”.

Q: What about the “calcium response of cells expressing any of the other TAS2Rs” value (other hTAS2 receptors) of the same molecule?
A: The value was “did not respond”.

Q: Which “calcium response of hTAS2R46-transfected cells” value (hTAS2R46) does the source give for `C/C1=C\C[C@H](O)[C@@H](C)C[C@H]2OC(=O)[C@@H](C)[C@@H]2CC1` [3β hydroxy pelenolide] here?
A: Its value is “displayed calcium signals”.
